Assay results: PubChem BioAssay AID2060603 (Molecular Pharmacology Branch, DTP, NCI, 2025)
pIC50: −log10 of the molar value.

Test system: 422866-222-R5-J1-PDC spheroid viability
Assay: Anticancer human tumor 422866-222-R5-J1-PDC patient-derived pancreatic adenocarcinoma cell line growth inhibition [CLK]
Conditions: spheroids with HUVEC and MSC; for pIC50: curve of first compound; for viability, T/C: stronger effect = lower value
In short: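 Patient-derived tumor cells grown as complex spheroids with HUVEC endothelial cells and mesenchymal stem cells, treated with drug combinations. Concentrations descend in half-log steps from near clinical Cmax, or from 10 microM if Cmax unknown.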

[1] = second compound 0.0316 µM, first compound 0.00316 µM
[2] = second compound 0.0316 µM, first compound 0.01 µM
[3] = second compound 0.0316 µM, first compound 0.0316 µM
[4] = second compound 0.0316 µM, first compound 0.1 µM
[5] = second compound 0.0316 µM, first compound 0.316 µM
[6] = second compound 0.0316 µM, first compound 1 µM
[7] = second compound 0.1 µM, first compound 0.00316 µM
[8] = second compound 0.1 µM, first compound 0.01 µM
[9] = second compound 0.1 µM, first compound 0.0316 µM
[10] = second compound 0.1 µM, first compound 0.1 µM
[11] = second compound 0.1 µM, first compound 0.316 µM
[12] = second compound 0.1 µM, first compound 1 µM
[13] = second compound 0.316 µM, first compound 0.00316 µM
[14] = second compound 0.316 µM, first compound 0.01 µM
[15] = second compound 0.316 µM, first compound 0.0316 µM
[16] = second compound 0.316 µM, first compound 0.1 µM
[17] = second compound 0.316 µM, first compound 0.316 µM
[18] = second compound 0.316 µM, first compound 1 µM
[19] = second compound 1 µM, first compound 0.00316 µM
[20] = second compound 1 µM, first compound 0.01 µM
[21] = second compound 1 µM, first compound 0.0316 µM
[22] = second compound 1 µM, first compound 0.1 µM
[23] = second compound 1 µM, first compound 0.316 µM
[24] = second compound 1 µM, first compound 1 µM
[25] = second compound 3.16 µM, first compound 0.00316 µM
[26] = second compound 3.16 µM, first compound 0.01 µM
[27] = second compound 3.16 µM, first compound 0.0316 µM
[28] = second compound 3.16 µM, first compound 0.1 µM
[29] = second compound 3.16 µM, first compound 0.316 µM
[30] = second compound 3.16 µM, first compound 1 µM
[31] = second compound 10 µM, first compound 0.00316 µM
[32] = second compound 10 µM, first compound 0.01 µM
[33] = second compound 10 µM, first compound 0.0316 µM
[34] = second compound 10 µM, first compound 0.1 µM
[35] = second compound 10 µM, first compound 0.316 µM
[36] = second compound 10 µM, first compound 1 µM
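Also: spheroids exposed to agents for seven days before readout.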

`CCc1c2c(nc3ccc(O)cc13)-c1cc3c(c(=O)n1C2)COC(=O)[C@]3(O)CC` + CN1CCN(c2cc(C(=O)Nc3cc4cc(-c5cnn(C)c5)ccc4cn3)ccn2)CC1 was tested, and the pIC50 (second compound 0.0316 µM) was > 8.50, the pIC50 (second compound 0.1 µM) was 8.35 and the pIC50 (second compound 0.316 µM) was > 8.50. The pIC50 (second compound 1 µM) was > 8.50, the pIC50 (second compound 3.16 µM) was > 8.50 and the pIC50 (second compound 10 µM) was > 8.50. It also gave a viability, T/C [1] of 49.4%, a viability, T/C [2] of 41.2% and a viability, T/C [3] of 37.6%. The viability, T/C [4] was 37.1%, the viability, T/C [5] was 27.9% and the viability, T/C [6] was 20.3%. The viability, T/C [7] was 54%, the viability, T/C [8] was 42.3% and the viability, T/C [9] was 34.8%. It also gave a viability, T/C [10] of 40%, a viability, T/C [11] of 24.7% and a viability, T/C [12] of 24.3%. The viability, T/C [13] was 52.9%, the viability, T/C [14] was 44.1% and the viability, T/C [15] was 45.7%. It also gave a viability, T/C [16] of 31.9%, a viability, T/C [17] of 24.2% and a viability, T/C [18] of 25.2%. The viability, T/C [19] was 12.3%, the viability, T/C [20] was 12.7% and the viability, T/C [21] was 12.4%. For the same compound, the viability, T/C [22] was 14.1%, the viability, T/C [23] was 30.5% and the viability, T/C [24] was 24.3%. It also gave a viability, T/C [25] of 6.01%, a viability, T/C [26] of 8.18% and a viability, T/C [27] of 12.9%. For the same compound, the viability, T/C [28] was 19%, the viability, T/C [29] was 25.1% and the viability, T/C [30] was 31.6%. The viability, T/C [31] was 1.14%, the viability, T/C [32] was 0.8% and the viability, T/C [33] was 2.73%. It also gave a viability, T/C [34] of 2.68%, a viability, T/C [35] of 4.83% and a viability, T/C [36] of 5.54%.

With `CCc1c2c(nc3ccc(O)cc13)-c1cc3c(c(=O)n1C2)COC(=O)[C@]3(O)CC` + CNC(=O)c1ccc(Nc2nc(OC3CCCC3)c3c(-c4ccc5nc(C)oc5c4)c[nH]c3n2)c(OC)c1 the pIC50 (second compound 0.0316 µM) was > 8.50, the pIC50 (second compound 0.1 µM) was > 8.50 and the pIC50 (second compound 0.316 µM) was > 8.50. The pIC50 (second compound 1 µM) was > 8.50, the pIC50 (second compound 3.16 µM) was > 8.50 and the pIC50 (second compound 10 µM) was > 8.50. It also gave a viability, T/C [1] of 45.6%, a viability, T/C [2] of 46.4% and a viability, T/C [3] of 51%. For the same compound, the viability, T/C [4] was 46.5%, the viability, T/C [5] was 42.7% and the viability, T/C [6] was 16.4%. It also gave a viability, T/C [7] of 49.1%, a viability, T/C [8] of 43.8% and a viability, T/C [9] of 40.2%. It also gave a viability, T/C [10] of 38%, a viability, T/C [11] of 40% and a viability, T/C [12] of 19.6%. The viability, T/C [13] was 42.3%, the viability, T/C [14] was 33.2% and the viability, T/C [15] was 30.9%. It also gave a viability, T/C [16] of 38.5%, a viability, T/C [17] of 27.6% and a viability, T/C [18] of 24.5%. The viability, T/C [19] was 46.8%, the viability, T/C [20] was 28.1% and the viability, T/C [21] was 38.2%. For the same compound, the viability, T/C [22] was 42.4%, the viability, T/C [23] was 20.8% and the viability, T/C [24] was 25.8%. The viability, T/C [25] was 41.9%, the viability, T/C [26] was 38.7% and the viability, T/C [27] was 33%. It also gave a viability, T/C [28] of 39.8%, a viability, T/C [29] of 22.6% and a viability, T/C [30] of 23.3%. For the same compound, the viability, T/C [31] was 31.2%, the viability, T/C [32] was 27.5% and the viability, T/C [33] was 38.4%. It also gave a viability, T/C [34] of 32.7%, a viability, T/C [35] of 23.7% and a viability, T/C [36] of 28.7%.

In the case of `COC1C=CCC(C)C(C)S(=O)(=O)NC(=O)c2ccc3c(c2)N(CC2CCC21)CC1(CCCc2cc(Cl)ccc21)CO3` (stereo unspecified) + CNC(=O)c1ccc(Nc2nc(OC3CCCC3)c3c(-c4ccc5nc(C)oc5c4)c[nH]c3n2)c(OC)c1, the pIC50 (second compound 0.0316 µM) was < 5.00, the pIC50 (second compound 0.1 µM) was < 5.00 and the pIC50 (second compound 0.316 µM) was < 5.00. The pIC50 (second compound 1 µM) was < 5.00, the pIC50 (second compound 3.16 µM) was < 5.00 and the pIC50 (second compound 10 µM) was < 5.00. For the same compound, the viability, T/C [3] was 118%, the viability, T/C [4] was 112% and the viability, T/C [5] was 114%. It also gave a viability, T/C [6] of 96.4%, a viability, T/C (second compound 0.0316 µM, first compound 3.16 µM) of 120% and a viability, T/C (second compound 0.0316 µM, first compound 10 µM) of 84.6%. For the same compound, the viability, T/C [9] was 101%, the viability, T/C [10] was 92.9% and the viability, T/C [11] was 94.1%. The viability, T/C [12] was 89.2%, the viability, T/C (second compound 0.1 µM, first compound 3.16 µM) was 97.8% and the viability, T/C (second compound 0.1 µM, first compound 10 µM) was 79.6%. The viability, T/C [15] was 85.2%, the viability, T/C [16] was 86.5% and the viability, T/C [17] was 72.9%. For the same compound, the viability, T/C [18] was 82.3%, the viability, T/C (second compound 0.316 µM, first compound 3.16 µM) was 91.6% and the viability, T/C (second compound 0.316 µM, first compound 10 µM) was 86.6%. For the same compound, the viability, T/C [21] was 69.3%, the viability, T/C [22] was 68.7% and the viability, T/C [23] was 60%. For the same compound, the viability, T/C [24] was 63.9%, the viability, T/C (second compound 1 µM, first compound 3.16 µM) was 87% and the viability, T/C (second compound 1 µM, first compound 10 µM) was 82.2%. For the same compound, the viability, T/C [27] was 69.9%, the viability, T/C [28] was 61.5% and the viability, T/C [29] was 62.4%. It also gave a viability, T/C [30] of 57.9%, a viability, T/C (second compound 3.16 µM, first compound 3.16 µM) of 88% and a viability, T/C (second compound 3.16 µM, first compound 10 µM) of 82%. For the same compound, the viability, T/C [33] was 58%, the viability, T/C [34] was 59.5% and the viability, T/C [35] was 69.5%. The viability, T/C [36] was 72.8%, the viability, T/C (second compound 10 µM, first compound 3.16 µM) was 94.8% and the viability, T/C (second compound 10 µM, first compound 10 µM) was 91.5%.
